Measurements published in patent publication US12440571B2, “Immune agonists” (SHENZHEN UNIVERSITY, priority 2020, dated 2025).
pIC50: −log10 of the molar value.

Assays:
Assay type in all cases: cell-based
HEK293T cells = experiment: CCK8 growth inhibition, HEK-293T; details: Homo sapiens, CCK8 method, read-out: IC50 of inhibitory activity on cell growth, HEK-293T
[1] = system: human colon cancer HCT-116 cells; experiment: CCK8 growth inhibition, HCT-116; details: CCK8 method, read-out: IC50 of inhibitory activity on tumor cell growth, HCT-116
[2] = system: human leukemia HL-60 cells; experiment: CCK8 growth inhibition, HL60; details: Homo sapiens, HL-60, CCK8 method; read-out: IC50 of inhibitory activity on tumor cell growth, HL60
A549 = experiment: CCK8 growth inhibition, A549; details: Homo sapiens, CCK8 method, read-out: IC50 of inhibitory activity on tumor cell growth, A549
[3] = system: human leukemia K562 cells; experiment: CCK8 growth inhibition, K562; details: CCK8 method, read-out: IC50 of inhibitory activity on tumor cell growth, K562
LLC = experiment: CCK8 growth inhibition, LLC; details: Lewis lung carcinoma; CCK8 method; read-out: IC50 of inhibitory activity on tumor cell growth, LLC
[4] = system: human lymphoma Daudi B cells; experiment: CCK8 growth inhibition, Daudi B; details: Homo sapiens, Daudi, CCK8 method; read-out: IC50 of inhibitory activity on tumor cell growth, Daudi B
black melanoma B16 cells = experiment: CCK8 growth inhibition, B16; details: Mus musculus, CCK8 method, read-out: IC50 of inhibitory activity on tumor cell growth, B16
TLR7 = biological target: T1, TLR7 (Homo sapiens, UniProt Q9NYK1); experiment: Detection of TLR7 activation (HEK-Blue Detection), SEAP reporter; details: HEK-Blue hTLR7 cells, 6-16 hrs, absorbance 650 nm; read-out: TLR7(EC50/μM)
T1 construct: host or cells: HEK-Blue hTLR7 cells (HEK293-derived SEAP reporter line)
T1 sequence (Q9NYK1 27-1049): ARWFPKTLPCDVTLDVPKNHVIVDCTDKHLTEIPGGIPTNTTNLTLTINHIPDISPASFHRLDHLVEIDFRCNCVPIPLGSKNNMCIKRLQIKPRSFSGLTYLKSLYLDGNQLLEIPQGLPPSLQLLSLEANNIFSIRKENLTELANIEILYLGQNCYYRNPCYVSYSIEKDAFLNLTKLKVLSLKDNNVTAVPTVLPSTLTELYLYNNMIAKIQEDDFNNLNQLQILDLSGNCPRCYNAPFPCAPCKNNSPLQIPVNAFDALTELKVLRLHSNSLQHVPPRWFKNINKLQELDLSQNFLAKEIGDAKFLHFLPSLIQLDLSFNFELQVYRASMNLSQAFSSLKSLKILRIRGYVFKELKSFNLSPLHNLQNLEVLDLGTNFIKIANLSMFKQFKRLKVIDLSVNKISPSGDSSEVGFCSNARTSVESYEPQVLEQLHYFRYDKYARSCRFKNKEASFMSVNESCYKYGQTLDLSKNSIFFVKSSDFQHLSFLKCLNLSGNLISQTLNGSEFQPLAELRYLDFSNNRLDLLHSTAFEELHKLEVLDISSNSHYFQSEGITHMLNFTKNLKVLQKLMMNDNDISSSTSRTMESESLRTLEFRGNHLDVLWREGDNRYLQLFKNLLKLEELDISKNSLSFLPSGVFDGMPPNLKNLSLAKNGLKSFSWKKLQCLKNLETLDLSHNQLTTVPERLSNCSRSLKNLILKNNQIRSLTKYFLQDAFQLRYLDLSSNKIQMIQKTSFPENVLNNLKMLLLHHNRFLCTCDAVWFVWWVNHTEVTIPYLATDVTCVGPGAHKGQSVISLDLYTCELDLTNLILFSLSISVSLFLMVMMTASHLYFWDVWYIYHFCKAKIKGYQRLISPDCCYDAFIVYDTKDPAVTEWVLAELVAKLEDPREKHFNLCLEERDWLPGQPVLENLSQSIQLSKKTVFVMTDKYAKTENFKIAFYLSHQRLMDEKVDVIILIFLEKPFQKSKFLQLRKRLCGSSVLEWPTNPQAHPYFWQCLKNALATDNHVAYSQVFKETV
Protocol: HEK-Blue™hTLR7 cells (purchased from InvivoGen) in a logarithmic growth phase were taken, with a growth medium (Gibco, C11995500BT, Invivo Gen, ant-nr) discarded. The cells were gently rinsed twice by an appropriate amount of 37° C. PBS (Hyclone, SH30256.01), a rinsed PBS was discarded. Thereafter, the cells were added with 2-5 mL of 37° C. PBS, incubated for 1 to 2 minutes, and then scraped by a cell scraper and gently pipetted to be dispersed into a single cell suspension. A hemocytometer was adopted to count the cells and a cell concentration was calculated. After that, a HEK-Blue™ Detection solution (purchased from Invivo Gen) was adopted to adjust the cell concentration of the cell suspension to 2.5×10^4/180 μL per well for cell plating on a 96-well cell culture plate. The HEK-Blue™hTLR7 cells were stimulated according to the designed series of GY compound or drug concentrations (0.01 μM, 0.1 μM, 1 μM, 5 μM, 15 μM, and 30 μM), with 3 replicate wells for each concentration, and were incubated at 37° C., 5% carbon dioxide for 6-16 hrs. After the incubation, the absorbance value was read at 650 nm with a full-wavelength microplate reader (BioTek-Epoch), as listed in Table 2.
Relative induction=(average OD value of experimental group−average OD value of negative control group)/average OD value of negative control group.
Specific details for the above method may be referred to https: • //www.invivogen.com/hek-blue-htlr7; https://www.invivogen.com/sites/default/files/invivogen/products/files/hek_blue_htlr7_tds.pdf.

[5] = system: human lymphoma Raji cells; experiment: CCK8 growth inhibition, Raji; details: Homo sapiens, Raji, CCK8 method; read-out: IC50 of inhibitory activity on tumor cell growth, Raji
[6] = system: murine leukemia WEHI-3 cells; experiment: CCK8 growth inhibition, WEHI-3; details: Mus musculus, CCK8 method, read-out: IC50 of inhibitory activity on tumor cell growth, WEHI-3

pIC50 [1]	pIC50 [2]	pIC50 (A549)	pIC50 [3]	pIC50 [4]	pIC50 (black melanoma B16 cells)	EC50 (TLR7)	pIC50 [5]	pIC50 [6]	Structure (SMILES)	pIC50 (HEK293T cells)	pIC50 (LLC)
4.81	5.01	4.77	4.83	5.06	4.47	2.65 µM	4.97	5.27	CCCCOc1nc(N)c2nc(O)n(Cc3cn(CCOCCOCCOCCNC(=S)N4CCCC(n5nc(-c6ccc(Oc7ccccc7)cc6)c6c(N)ncnc65)C4)nn3)c2n1 (stereo not shown) [GY112]	4.86	4.73
4.68	4.72	4.63	4.75	–	–	1.06 µM	–	–	CCCCOc1nc(N)c2nc(O)n(Cc3cn(CCOCCOCCOCCNC(=S)Nc4cc(Nc5nccc(-c6cn(C)c7ccccc67)n5)c(OC)cc4N(C)CCN(C)C)nn3)c2n1 [GY127]	4.59	4.82
–	–	–	–	4.93	4.93	3.86 µM	4.79	–	CCCCOc1nc(N)c2nc(O)n(Cc3cn(CCCCN4CCN(CCCNC(=S)N5CCCC(n6nc(-c7ccc(Oc8ccccc8)cc7)c7c(N)ncnc76)C5)CC4)nn3)c2n1 (stereo not shown) [GY161]	–	–
